# Experimental data reported in patent publication US9371281B2, “Indole derivatives as inhibitors of histone deacetylase” (Pharmacyclics LLC, priority 2006, dated 2016).
# “Also recorded” adds a separate entry of the source.
# Experiments:
# [1] = system: normal human peripheral blood mononuclear cells; assay: Cell proliferation, Alamar Blue assay (FIG. 9B); type: cell-based; details: PBMCs, 24 hours
# A549 (lung) = assay: Apoptosis in solid tumor cells, Annexin V assay; type: cell-based
# HCT116 (colon) = assay: Apoptosis in solid tumor cells, Annexin V assay; type: cell-based, human
# U87 (glioma) = assay: Apoptosis in solid tumor cells, Annexin V assay; type: cell-based
# RKO (colon) = assay: Apoptosis in solid tumor cells, Annexin V assay; type: cell-based
# MCF-7 (breast) = assay: Apoptosis in solid tumor cells, Annexin V assay; type: cell-based
# PC3 (prostate) = assay: Apoptosis in solid tumor cells, Annexin V assay; type: cell-based
# Ovcar-3 (ovarian) = assay: Apoptosis in solid tumor cells, Annexin V assay; type: cell-based
# Jurkat [2] = assay: Apoptosis in T-cell lines, Annexin-V positive cells by flow cytometry; type: cell-based; details: 3 Day dose
# J.γ1 [3] = assay: as above; type: cell-based; details: 3 Day dose
# P116 [4] = assay: as above; type: cell-based; details: 3 Day dose
# J.RT3-T.5 [5] = assay: as above; type: cell-based; details: 3 Day dose
# Jurkat cells = assay: Compound 23 induced apoptosis with Ca2+ effectors; type: cell-based
# Text: […]. […] […].
# [6] = system: Cytochrome C translocation in Jurkat cells; assay: Cytochrome C translocation, Western blotting of mitochondrial and cytosolic fractions; type: cell-based; details: 12 or 24 hours
# [7] = system: IL-1b secretion in human PBMCs; assay: Inhibition of IL-1b secretion in human PBMCs; type: cell-based; details: FIG. 11
# Protocol: Lipopolysaccharide (LPS, 25 ng/ml) is then added to stimulate the cells for another 16 hour incubation period in 5% CO2. IL-1b cytokine levels in the conditioned medium are then quantitated using a sandwich ELISA kit. Compounds are screened at 10, 1, 0.1, 0.01 and 0.001 μM. These same concentrations are concurrently applied to a separate group of treated cells and evaluated for possible compound-induced cytotoxicity.
# [8] = system: IL-1b secretion in THP-1 monocyte cell line; details: LPS, FIG. 12
# HDAC8 protein expression = assay: Western blot of HDAC8 after 24 hr treatment in Jurkat cells
# Text: (§1) Western blot of HDAC8 & HDAC1 after 24 hr treatment in Jurkat cells were obtained.
# Jurkat [9] = assay: Growth inhibition in T-cell lines (Table 6); type: cell-based; details: Homo sapiens, 72 h, 3 Day dose
# J.γ1 [10] = assay: Growth inhibition in T-cell lines (Table 6); type: cell-based; details: 72 h, J.γ1 (Phospholipase C-γ1 deficient), 3 Day dose
# P116 [11] = assay: Growth inhibition in T-cell lines (Table 6); type: cell-based; details: 72 h, P116 (ZAP-70 deficient), 3 Day dose
# J.RT3-T.5 [12] = assay: Growth inhibition in T-cell lines (Table 6); type: cell-based; details: 72 h, J.RT3-T.5 (TCR-β chain deficient), 3 Day dose
# HDAC1 levels = details: Jurkat cells, 24 hr treatment, Western blot
# Text: as §1
compound,measurement,setting,value
"COc1ccc(Cn2ccc3ccc(C(=O)NO)cc32)cc1 [Compound 23, 1-(4-methoxy-phenylmethyl)-1H-indole-6-carboxylic acid hydroxyamide]",effect on growth,[1],failed to inhibit the growth; also recorded: does not inhibit growth
same,% apoptosis at 20 μM (Annexin V assay),A549 (lung),0%
same,% apoptosis at 20 μM (Annexin V assay),HCT116 (colon),3%
same,% apoptosis at 20 μM (Annexin V assay),U87 (glioma),0%
same,% apoptosis at 20 μM (Annexin V assay),RKO (colon),0%
same,% apoptosis at 20 μM (Annexin V assay),MCF-7 (breast),0%
same,% apoptosis at 20 μM (Annexin V assay),PC3 (prostate),0%
same,% apoptosis at 20 μM (Annexin V assay),Ovcar-3 (ovarian),15%
same,Apoptosis at 5 μM (%),Jurkat [2]; 5 μM,43%
same,Apoptosis at 5 μM (%),"J.γ1 [3]; J.γ1, 5 μM",12%
same,Apoptosis at 5 μM (%),"P116 [4]; P116, 5 μM",82%
same,Apoptosis at 5 μM (%),"J.RT3-T.5 [5]; J.RT3-T.5, 5 μM",67%
same,compound 23 induced apoptosis with Ca2+ effector thapsigargin,"Jurkat cells; compound 23=5 μM, thapsigargin=0.2 μM",enhanced
same,compound 23 induced apoptosis with Ca2+ chelator BAPTA-AM,"Jurkat cells; compound 23=10 μM, BAPTA 0.5 μM",inhibited
same,Cytochrome C translocation from mitochondria to cytosol,[6],Cytochrome C translocation from mitochondria to cytosol
same,IL-1b secretion,[7],inhibition of IL-1b secretion
same,IL-1b secretion,[8],reduction of IL-1b secretion
same,HDAC8 protein levels,HDAC8 protein expression,affected
"CN(C)Cc1c(C(=O)NCCOc2ccc(C(=O)NO)cc2)oc2ccccc12 [PCI-24781, reference compound]",GI50,Jurkat [9],130 nM
same,GI50,J.γ1 [10],140 nM
same,GI50,P116 [11],190 nM
same,GI50,J.RT3-T.5 [12],140 nM
same,Apoptosis at 0.125 μM (%),Jurkat [2]; 0.125 μM,48%
same,Apoptosis at 0.125 μM (%),"J.γ1 [3]; J.γ1, 0.125 μM",18%
same,Apoptosis at 0.125 μM (%),"P116 [4]; P116, 0.125 μM",76%
same,Apoptosis at 0.125 μM (%),"J.RT3-T.5 [5]; J.RT3-T.5, 0.125 μM",32%
same,HDAC8 protein levels,HDAC8 protein expression,affected
same,HDAC1 levels,HDAC1 levels,decreased
